Measurements taken from patent US20100137419A1, “ANTI-CANCER AGENT” (WAN STATION CO., LTD., priority 2006, published 2010).

Tests used:
[1] = tested on: mouse malignant melanoma cell line (B16); assay: Examination of anti-cancer action 2 (with electroporation), cell survival rate with Tetra Color One; type: cell-based; conditions: DMSO 0.1%
Experimental: (§1) Subsequently, the cell line contained in each of the samples A0 to A5 was cultured in a CO2 incubator for 24 hours. The temperature in the CO2 incubator was set at 37.0° C., and the concentration of CO2 was set at 5.0%. Thereafter, 10 μl of a cell proliferation test reagent (manufactured by Seikagaku Corp.; product name: Tetra Color One) was added to each sample, and they were reacted in a CO2 incubator for 2 hours. Thereafter, the absorbance at a wavelength of 450 nm (control wavelength: 600 nm) was measured using a microplate reader (manufactured by Bio-Rad Laboratories, Inc.), so as to measure the survival rate of the cell line. The survival rate was measured at time points of 24, 48, and 72 hours after the reaction with the cell proliferation test reagent.
Thereafter, a DC pulse of 30 V was applied to the electrodes of each cuvette 10 times, so as to perform an electroporation operation.
Subsequently, the cell line contained in the samples D0 to D2 were cultured under the same conditions as those described in the “determination of solvent concentration” above, and the cell proliferation test reagent was reacted therewith. Then, the survival rate of the cells was measured at 0, 24, 48, and 72 hours after the reaction.

[2] = heat stability of the rotaxane compound; type: physicochemical
[3] = tested on: mouse malignant melanoma cell line (B16); assay: Examination of anti-cancer action 1 (without electroporation), cell survival rate with Tetra Color One; type: cell-based; conditions: 10 and 100 nM, DMSO 0.1%, without electroporation, 0, 24, 48, 72 hours (FIG. 3)
Experimental: as §1
Subsequently, the cell line contained in the samples C0 to C2 were cultured under the same conditions as those described in the “determination of solvent concentration” above, and the cell proliferation test reagent was reacted therewith. Then, the survival rate of the cells was measured at 0, 24, 48, and 72 hours after the reaction.

heat stability [2]: relatively heat-stable
Substance: [2][bis (2-(3,5-dimethylphenylcarbonyloxy)ethyl) ammonium trifluoromethanesulfonate]-[dibenzo-24-crown-8] rotaxane
survival rate / proliferation of cancer cells ([1]; 10 and 100 nM, electroporation 30 V DC pulse 10 times, 0, 24, 48, 72 hours (FIG. 4)): suppress the proliferation of cancer cells became significant | survival rate / number of cancer cells over time ([1]; sample D2: 100 nM, electroporation 30 V, 0-72 hours (FIG. 4)): cancer cells were reduced over time | survival rate / proliferation of cancer cells [3]: has an effect of retarding the proliferation of cancer cells
